In US4997926A, “Deaminase-stable anti-retroviral 2-halo-2',3'-dideoxy” (Scripps Clinic and Research Foundation, priority 1987, dated 1991):

What was measured:
[1] = test system: deoxycytidine kinase and adenosine kinase deficient CEM T cells (clone AraC-8DM10-5); type: in vitro ADME, human; conditions: 3 uM, 4 hours
Method: ^1 Human CEM T cells, or variants deficient in either deoxycytidine
kinase, or deoxycytidine kinase plus adenosine kinase, were incubated at
density of 5 × 10^7 cells/ml in medium containing 3 uM [8^3
H2-chloro-2',3dideoxyadenosine. After 4 hours, the nucleotides in the
methanolsoluble extracts were determined after separation by HPLC, as
described in the Materials and Methods.
The human T lymphoblastoid cell line, CCRF-CEM, and mutants deficient in either deoxycytidine kinase (clone AraC-8D), or deoxycytidine kinase plus adenosine kinase (clone AraC-8DM10-5) were obtained and propagated as described previously [Foley et al., (1965) Cancer, 18:552-529 and Hershfield et al., (1982) J. Biol. Chem., 257:6380-6386]. For metabolic studies, the cells were cultured in RPMI 1640 medium supplemented with 2 mM L-glutamine and 10 percent fetal bovine serum at a density of 2×10^7 cells/ml in the presence of radiolabelled dideoxynucleosides, as indicated earlier. Some cultures were pre-incubatedfor 30 minutes either with 5 uM 2'-deoxycoformycin or 50 uM coformycin. After 4 hours of incubation the cells were harvested by centrifugation.
The cell pellets were washed with Hank's balanced salt solution at 4 degrees C., and extracted with 1 ml 60 percent methanol/water at -20 degrees C. for 10 minutes. Initial studies included 2',3'-dideoxyadenosine5'-triphosphate as an internal recovery marker. The nucleotides were fractionated by high performance liquid chromatography on an Whatman Partisil-10 SAX column, applying a gradient of zero to 100 percent buffer B in buffer A. Buffer A was 7 mM potassium phosphate pH 3.4. Buffer B was 0.5 M potassium phosphate, pH 3.4, one M KCl. The flow rate was 1.5 ml/minute, 1 minute fractions were collected. Buffer A was used alone for the first ten fractions after which elution with Buffer B began and was continued through fraction thirty, after which the eluting buffer was completely Buffer B. The nucleoside was eluted by about fraction six. The monophosphate eluted between about fractions fifteen and eighteen, the diphosphate between about fractions twenty-seven and thirty-two, and the triphosphate eluted between about fractions fifty-one and about sixty-five.

[2] = test system: HIV (strain LAV) in MT-2 cells; experiment: HIV-induced syncytia formation and cytopathic effect in MT-2 T lymphoblasts; type: cell-based
From the text: The anti-HIV activities of the 2-halo-2',3'-dideoxyadenosine derivatives were first assayed in human MT-2 T lymphoblasts, as this system readily permitted a differentiation between anti-retroviral and anti-proliferativeeffects Exposure of the MT-2 T cell line to cell-free HIV led to the formation of syncytia within 4-5 days, and to a parallel decline in cell viability.
The MT-2 human lstoid cell line, which carries the human T cell leukemia virus type I (HTLV-1) genome, was used to assess the cytopathic effects of HIV, and the protective effects of the various nucleosides. […] The formation of syncytia, with resultant cell death, depends upon the expression on the cell-surface of the HIV envelope glycoproteins gp160, gp120, and gp4l, by cells that bear the differentiation antigen CD4 (T4) [Lipson et al., (1986) Nature, 323:725-728].
In the reported studies, the formation of syncytia in the MT-2 cell line (provided by J. Riggs and M. Aschen, State Department of Public Health, Berkelye, CA) was a sensitive and reproducible system to follow both the course of HIV infection and the potential cytotoxic effects of the added nucleosides. HIV (strain LAV) maintained in CEM cell culture was obtained from F. Barre-Sinoussi, J. C. Chermann and L. Montagnier (Institute Pasteur, Paris).
Cell-free virus was prepared by mixing LAV-infected CEM cells with two liters of 2×10^6 cells/ml of uninfected CEM cells at a ratio of 1:20 and incubating at 37 degrees C. for six days at which time, more than 80 percent of the cells expressed the p24 (gag) antigen using mouse monoclonal antibody M33, obtained from F. Vernoese di Marzo and M. Sarngadharan (Litton Bionetics, Rockville, Md.) using an enzyme immunofiltration staining method [Cleveland et al. (1987) J. Clin. Microbiol., 25:416-420]. The cells were centrifuged at 750×g for 10 minutes. The clarified supernatant was then titered by terminal dilution assay in 96 well microtiter plates containing 6×10^4 MT-2 cells per well suspended in a final volume of 200 ul RPMI 1640 medium containing 10 percent fetal bovine serum, 2 mM glutamine and […].
When HIV was added to this microtiter culture system at a multiplicity of infection of 0.1 TCID50 /cell, multinucleated giant cells appeared within 48 hours, and the majority of cells were fused in syncytia structures by day 4. The appearance of giant cells correlated with detectable antigens and RNA of HIV.
For measurement of antiviral activity, different concentrations of the assayed compounds were added to duplicate wells at the time of infection, and the cultures were incubated at 37 degrees C. After 4 and 5 days, the numbers of syncytia per culture were enumerated microscopically.
The results presented herein were confirmed in five separate experiments. Controls containing uninfected and infected cells with and without anti-retroviral nucleosides were included.
The results were expressed in semi-quantitative units that take into account the growth pattern of MT-2, and the ability of the HIV to cause both syncytia formation and cell death. In this unit system, 1 corresponds to 1-3 syncytia per well and no change in cell count compared to control cultures lacking virus; 2 corresponds to 3-10 syncytia per well and up to 20 percent cell death; 3 corresponds to 10-30 syncytia per well and a 20-70 percent drop in cell viability; 4 corresponds to more than 30 syncytia well and at least a 70 percent fall in the viable cell count.

[3] = test system: HIV in PHA-stimulated lymphocytes; experiment: HIV-infected PHA-stimulated lymphocytes, antigen ELISA of supernate, positive cultures; type: cell-based; conditions: 10 uM, ten cultures, ELISA OD490
Method: The activities of 2-halo-2',3'-dideoxyadenosine (2-F-,2-Cl- or 2-Br-ddA) derivatives were compared to those of 2-fluoro- and 2-chloro-2',3'-dideoxyinosine (2-F- and 2-Cl-ddI) and 2',3-dideoxyadenosine (ddA) against HIV-infected, antigen ELISA assay described herein.
The PHA-stimulated lymphocytes were suspended in media containing cell-free HIV, and were incubated overnight (about 18 hours). The cells were thereafter pelleted resuspended in a growth medium as pharmacologically acceptable carrier containing one of the above compounds at a 10 uM concentration, or with no added compound as a control, and plated at 10^5 cells per microculture; the medium was also supplemented with interleukin-2. The release of virus into the supernate was measured by ELISA at 4, 8 and 12 days, post-inoculation. Each microculture plate also contained ten virus-free cultures that served as further controls. Ten cell cultures were used for each compound.
Cultures were scored positive if the optical density in the ELISA (OD490) was greater than two standard deviations above the readings for the virus-free cultures. This method is adapted from that of McDougal et al. (1985) J. Immunol. 135:3151.

[4] = test system: HIV in ATH8 cells; conditions: HIV-infected ATH8 cells; read-out: Concentration providing a 50 percent protection level against the cytopathic effect of HIV; cited from earlier work

Nc1nc(Cl)nc2c1ncn2[C@H]1CC[C@@H](CO)O1 [2-chloro-2',3'-dideoxyadenosine]
Nucleotide Formed, Diphosphate [1]: 0.7 pmols/10^8 cells/4 hrs | Nucleotide Formed, Monophosphate [1]: 0.9 pmols/10^8 cells/4 hrs | Nucleotide Formed, Triphosphate [1]: 2.5 pmols/10^8 cells/4 hrs | HIV-induced syncytia formation ([2]; 10 uM): blocked syncytia formation

Nc1ncnc2c1ncn2[C@H]1CC[C@@H](CO)O1 [2',3'-dideoxyadenosine, reference compound]
cytopathic effect of HIV / virus-induced cell killing [2]: inhibit the cytopathic effect of HIV | positive cultures on day 4 [3]: no positives | positive cultures on day 8 [3]: 100% | positive cultures on day 12 [3]: 100% | EC50 [4]: 2700 nM
